Assay results reported in US10751396B2, “Early hyperlipidemia promotes endothelial activation via a caspase-1-sirtuin 1 pathway” (Temple University—Of The Commonwealth System of Higher …, priority 2015, dated 2020).
Residues, ends and D or L forms follow the SMILES beside them. *: point of attachment. Cbz = O=C(OCc1ccccc1)*

Legend:
Format in all cases: cell-based, human
caspase-1 = experiment: Caspase-1 activity assay (FAM-YVAD-FMK, flow cytometry) in HAECs; details: for oxLDL-induced caspase-1 activation with ROS inhibitors: Allopurinol 1 mmol/L, Apocynin 100 μM added 1 hour before oxLDL (100 μg/mL) 6 hours
Description: (§1) Active caspase-1 level was determined with APO LOGIX kit (Cell Tech., Mountain View, Calif.). The kit contains a carboxyfluorescein (FAM) [Excitation/Emission (nm):490/520]-labeled peptide fluoromethyl ketone (FMK) caspase-1 inhibitor (FAM-YVAD-FMK), which irreversibly binds to active caspase-1. All procedures were performed according to the manufacturer's instruction. Briefly, HAECs (≤passage 9) were cultured in 6-well plates and serum starved overnight to quiescent the cells before treatment. Next day, HAECs were treated with indicated stimuli for 6 hr. Cells were then digested by trypsin-EDTA and suspended at 1×10^6 cells/ml. 150 μl of cell suspension were incubated at 37° C. with 1× FAM-YVAD-FMK for 1 hour then washed with 1× washing buffer. Unfixed caspase-1 stained cells were then incubated with 7-aminoactinomycin D (7-AAD; cell membrane integrity marker) (BD Pharmingen, San Diego, Calif.) for no more than 10 min before analysis. The Calibur flow cytometer (BD Biosciences, San Jose, Calif.) was used to determine caspase-1 active (Caspase-1^+) and 7-AAD^+ cells. Data were analyzed with the FlowJo software (Tree Star, Ashland, Oreg.).
Active caspase-1 levels were determined with an APO LOGIX kit (Cell Technology, Mountain View, Calif.). The kit contained a carboxyfluorescein (FAM) (excitation/emission (nm): 490/520)-labeled peptide fluoromethyl ketone (FMK) caspase-1 inhibitor (FAM-YVAD-FMK), which irreversibly binds to active caspase-1. The procedures were performed according to the manufacturer's instructions. HAECs were cultured in 6-well dishes and serum-starved overnight to ensure quiescence of the cells before treatment. The next day, HAECs were treated with the indicated stimuli for 6 h. Cells were harvested and suspended at 1×10^6 cells/ml. The cell suspension (150 μl) was incubated in 37° C. with 1× FAM-YVAD-FMK for 1 h. After being washed with 1× washing buffer, the cells were fixed with fixative buffer and stored in 4° C. for up to 24 h. To determine the cell membrane integrity, the unfixed cells were stained with 7-AAD (Pharmingen) (0.25 μg/test) and incubated for no more than 10 min before analysis.
All flow cytometric data were analyzed by using the FlowJo software (Tree Star, Ashland, Oreg.). The uncompensated data were collected from the flow cytometer (either FACSCalibur flow cytometer or LSRII flow cytometer; BD Biosciences). Forward and side scatter gates were used to select live cell populations from clumps and debris. The positive gating was determined by its matched IgG control, and single staining was used to determine the compensation parameter. Different gates were established to analyze the data according to cell size as described in our figures.

Sirt1 = Sirt1 cleavage in oxLDL-treated HAECs by Western blot; details: agent added 1 hour before oxLDL (100 μg/mL, 24 hours)
Source text: FIG. 8, comprising FIG. 8A through FIG. 8C, depicts experimental results showing hyperlipidemia/dyslipidemia decreases sirtuin 1 (Sirt1) expression in ApoE^−/− mouse aorta and induces Sirt1 cleavage in human aortic endothelial cells (ECs) through caspase-1 (casp-1) activation. FIG. 8A depicts Casp-1 deficiency results in Sirt1 accumulation in mouse aorta in ApoE^−/−/Casp-1^−/− mice. ApoE^−/− mice and ApoE^−/−/Casp-1^−/− mice were fed with a high fat (HF) diet for 3 weeks. Mouse aortic tissues were collected for uncleaved Sirt1 protein expression analysis by Western blot with the specific antibody (left panel). The quantification of Sirt1 expression in the Western blot was presented after normalized with the expression of β-actin in the same sample (right panel). FIG. 8B depicts oxidized low-density lipoprotein (OxLDL) induces Sirt1 cleavage in human aortic endothelial cells (HAECs). HAECs were cultured and treated with oxLDL (100 μg/mL) for 24 hours. […] The protein lysates were collected, and cleaved-Sirt1 expression was determined by Western blot with anti-Sirt1 antibody. The relative changes of Sirt1 expression normalized by β-actin (ratios) were calculated based on the ratios of Sirt1 expression levels in treated samples over that in nontreated samples. […]

[1] = system: alpha actin and calponin RNA transcripts in HAVSMCs; experiment: Contractile marker RNA in HAVSMCs exposed to uremic serum (quantitative RT-PCR); details: HAVSMC, 10% pooled CKD sera 24 hours, compared to non-treated controls
Description: FIG. 29 depicts experimental results showing the exposure of human aortic vascular smooth muscle cells (HAVSMCs) to uremic serum decreases the expression of contractile marker RNA transcripts, which is reversed by the inhibition of caspase-1. HAVSMCs were grown to sub-confluence and were serum starved for 24 hours and exposed to 10% pooled uremic sera from CKD patients (CKD PS) with and without Caspase-1 Inhibitor (Casp1 inh) for another 24 hours. The RNA was extracted, was reverse transcribed into cDNA, and the expression of smooth muscle contractile marker RNA transcripts (alpha actin and calponin) was measured by quantitative RT-PCR using the Applied Biosystems 7500, Taqman primers and probes. The relative quantification of gene RNA expression is presented after being normalized with the expression of a house-keeping gene. *P value<0.005.
Blood samples were obtained from 6 healthy donors with normal kidney function and 20 patients with end stage renal disease who were on hemodialysis. […]
Total RNA from cultured cells was extracted using the RNeasy kit (Qiagen, Valencia, Calif.), and cDNA was synthesized with the VILO first-strand synthesis system (Invitrogen, Grand Island, N.Y.). […] Relative gene expression levels were calculated after normalization with the internal control eukaryotic 18S gene using the 2^−deltadeltaCt method, where Ct is the threshold value.

HAECs = experiment: Caspase-1/7-AAD co-staining for pyroptosis in HAECs; details: HAECs, 6-hour stimulation; oxLDL 100 μg/mL, LPA 100 μM, LPC 15 μM
Description: FIG. 7, comprising FIG. 7A through FIG. 7D, depicts experimental results showing Oxidized low-density lipoprotein (oxLDL) and its components induce caspase-1 (casp-1) activation in human aortic endothelial cells (HAECs) via a reactive oxygen species (ROS)-mediated p-athway. FIG. 7A depicts pyroptotic cell death in HAECs caused by activation of casp-1 induced by oxLDL and its components. HAECs were cultured and treated with low-density lipoprotein (LDL; 100 μg/mL), oxLDL (100 μg/mL), oxLDL-derivatives lysophosphatidic acid (LPA, 100 μM), or lysophosphatidylcholine (LPC, 15 μM) as indicated for 6 hours. Casp-1 activity was determined by a commercial kit, and 7-aminoactinomycin D (7-AAD) fluorescence dye was used to determine the cell membrane integrity. Casp-1^+/7-AAD^+ cells were gated as pyrototic cells (Q3), casp-1^+ single positive cells (Q2) were gated as inflammatory cells, and 7-AAD^+ single positive cells (Q4) were gated as necrotic cells. FIG. 7B depicts ROS levels in pyroptotic cells. ROS levels were determined by dihydroethidium (DHE) fluorescence dye staining, and the mean fluorescence intensity (MFI) of DHE^+ cell fraction was determined. […] Allopurinol (1 mmol/L) and Apocynin (100 μM) were added 1 hour before oxLDL treatment. HAECs were then treated with oxLDL (100 μg/mL) for 6 hours and stained for caspase-1 activity. FIG. 7D depicts mRNA upregulation of inflammasome components, including NLRP1 (Nod-like receptor protein 1), NLRP3 (Nod-like receptor 3), PYCARD (or ASC, inflammasome adaptor apoptosis-associated speck-like protein containing a CARD), caspase-1, and IL-1β (interleukin-1β) in HAECs treated with oxLDL. Data are expressed as mean±SE. *P<0.05, changes with statistical significance.
as §1
Active caspase-1 levels were determined with an APO LOGIX kit (Cell Technology, Mountain View, Calif.). The kit contained a carboxyfluorescein (FAM) (excitation/emission (nm): 490/520)-labeled peptide fluoromethyl ketone (FMK) caspase-1 inhibitor (FAM-YVAD-FMK), which irreversibly binds to active caspase-1. The procedures were performed according to the manufacturer's instructions. HAECs were cultured in 6-well dishes and serum-starved overnight to ensure quiescence of the cells before treatment. The next day, HAECs were treated with the indicated stimuli for 6 h. Cells were harvested and suspended at 1×10^6 cells/ml. […]

Oc1ncnc2[nH]ncc12 [Allopurinol] was tested, and the “oxLDL-induced caspase-1 activation with ROS inhibitors” value (caspase-1) was “attenuation of oxLDL-induced caspase-1 activation”.
For COc1cc(C(C)=O)ccc1O [Apocynin], the “oxLDL-induced caspase-1 activation with ROS inhibitors” value (caspase-1) was “attenuation of oxLDL-induced caspase-1 activation”.
In the case of CC(C)C[C@@H](C=O)NC(=O)[C@H](CC(C)C)NC(=O)[C@H](CC(C)C)NC(=O)OCc1ccccc1 [MG-132] (Cbz-Leu-Leu-Leu-aldehyde), the “oxLDL-induced Sirt1 cleavage with inhibitor” value (Sirt1) was “inhibited”.
CC(C)c1cc(/C=C(\C#N)C(=O)NCCCc2ccccc2)cc(C(C)C)c1O [SU1498] was tested, and the “caspase-1 activation after VEGFR-2 inhibition” value (caspase-1; HAECs pretreated with SU1498, then LPC (30 μM) 6 h after overnight serum starvation) was “increases caspase-1 activation”.
For COC(=O)C[C@H](NC(=O)[C@H](C)NC(=O)[C@@H](NC(=O)[C@H](Cc1ccc(O)cc1)NC(=O)OCc1ccccc1)C(C)C)C(=O)CF [Z-YVAD-FMK], the “relative quantification of alpha-actin RNA” value [1] was 0.588 and the “relative quantification of calponin RNA” value [1] was 0.601.
In the case of “RQIKIWFQNRRMKWKKGYRDNLLFGAEIITNGFHSC (N-terminal protein transduction sequence; listed as Homo sapiens) [NC-Sirt1]”, the “oxLDL-induced Sirt1 cleavage with inhibitor” value (Sirt1) was “dose-dependently decreases”.
In the case of mono-acylsn-glycero-3-phosphate [LPA], the “induction of inflammation, pyroptosis and necrosis (caspase-1/7-AAD gating)” value (HAECs) was “induced inflammation, inflammatory cell death (pyroptosis), and necrosis”, the “caspase-1 activation in larger size of HAECs” value (caspase-1; 6 h, oxLDL (100 μM), LPA (30 μM), LPC (30 μM), large FSC gate) was 54.4% and the “caspase-1 activation in smaller size of HAECs” value (caspase-1; 6 h, oxLDL (100 μM), LPA (30 μM), LPC (30 μM), small FSC gate) was 25.2%.
